Data as given in US8697691B2, “Alkyl 3-((2-amidoethyl)amino)-8-azabicyclo[3.2.1]octane-8-carboxylate analogs as selective M1 agonists and methods of making and using same” (Vanderbilt University, priority 2009, dated 2014).
Where two headings read alike, the source gives them in different places.

Target: T1, human M1 receptor (Homo sapiens, UniProt P11229)
T1 construct: host or cells: CHO-K1
T1 sequence (P11229 1-460): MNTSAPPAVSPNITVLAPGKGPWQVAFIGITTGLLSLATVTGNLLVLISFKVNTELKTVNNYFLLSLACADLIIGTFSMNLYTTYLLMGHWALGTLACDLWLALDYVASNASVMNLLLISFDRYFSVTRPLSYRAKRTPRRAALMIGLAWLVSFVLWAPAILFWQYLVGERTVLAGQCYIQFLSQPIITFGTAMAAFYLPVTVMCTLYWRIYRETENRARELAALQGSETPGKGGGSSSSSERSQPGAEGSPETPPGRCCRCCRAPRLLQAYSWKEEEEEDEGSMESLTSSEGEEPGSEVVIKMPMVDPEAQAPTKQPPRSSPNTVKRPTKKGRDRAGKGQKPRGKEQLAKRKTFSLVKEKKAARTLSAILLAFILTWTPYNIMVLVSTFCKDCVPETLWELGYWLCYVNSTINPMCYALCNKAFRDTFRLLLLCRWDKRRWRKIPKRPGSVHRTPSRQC
Experiment: Calcium mobilization assay, CHO-K1 cells stably expressing hM1 (high throughput, FDSS 6000)
Type: cell-based
Settings: for Emax: CHO-K1, read-out: Efficacy (% Max ACh)
Source text: Chinese hamster ovary (CHO-K1) cells stably expressing rat (r)M1 were purchased from the American Type Culture Collection and cultured according to their indicated protocol. CHO cells stably expressing human (h)M2, hM3, and hM5 were described previously (Levey et al., 1991); hM1 and hM4 cDNAs were purchased from Missouri S&T cDNA Resource; rM4 cDNA was provided by T. I. Bonner (National Institutes of Health, Bethesda, Md.). hM1, hM4, and rM4 cDNAs were used to stably transfect CHO-K1 cells purchased from the American Type Culture Collection using Lipofectamine2000. To make stable hM2, hM4 and rM4 cell lines for use in calcium mobilization assays, these cells also were stably transfected with a chimeric G-protein (Gqi5) (provided by B. R. Conklin, University of California, San Francisco) using Lipofectamine 2000. rM1, hM3, and hM5 cells were grown in Ham's F-12 medium containing 10% heat-inactivated fetal bovine serum (FBS), 20 mM HEPES, and 50 μg/mL G418 sulfate. hM2-Gqi5 and hM4-Gqi5 cells were grown in the same medium also containing 500 μg/mL Hygromycin B. Stable rM4-Gqi5 cells were grown in DMEM containing 10% heat-inactivated FBS, 20 mM HEPES, 400 μg/mL G418 sulfate, and 500 μg/mL Hygromycin B. The rat M1 Y381A orthosteric mutant receptor cDNA was generated using the Quik-Change site-directed mutagenesis kit (Stratagene) and verified by sequencing. CHO-K1 cells were stably transfected with this cDNA using Lipofectamine2000 and screened for expression based on calcium mobilization in response to the allosteric M1 agonist N-desmethylclozapine.
For high throughput measurement of agonist-evoked increases in intracellular calcium, CHO-K1 cells stably expressing muscarinic receptors were plated in growth medium lacking G418 and hygromycin at 15,000 cells/20 μL/well (hM1, hM2-Gqi5, hM3, hM4-Gq15, and hM5) in Greiner 384-well black-walled, tissue culture (TC)-treated, clear-bottom plates (VWR). Cells were incubated overnight at 37° C. and 5% CO2. The next day, cells were washed using an ELX 405 (BioTek) with three washes (50 μL) of assay buffer then aspirated to 15 μL. Next, 5 μL of 8 μM Fluo-4/acetoxymethyl ester (Invitrogen, Carlsbad, Calif.) prepared as a 2.3 mM stock in DMSO and mixed in a 1:1 ratio with 10% (w/v) Pluronic F-127 and diluted in assay buffer was added to the wells and the cell plates were incubated for 45 min at 37° C. and 5% CO2. Dye was removed by washing with the ELX 405 (three 50 μL washes of assay buffer) then aspirated to 20 μL. Agonist and compound master plates were formatted in an 11 point CRC format (1:3 dilutions) in 100% DMSO with a starting concentration of 10 mM using the BRAVO liquid handler (Agilent). Test compound CRCs were then transferred to daughter plates ([…]) using the Echo acoustic plate reformatter (Labcyte, Sunnyvale, Calif.) and then diluted into assay buffer (40 μL) to a 2× stock using a Thermo Fisher Combi (Thermo Fisher Scientific, Waltham, Mass.). Calcium flux was measured using the Functional Drug Screening System (FDSS) 6000 (Hamamatsu Corporation, Tokyo, Japan) as an increase in the fluorescent static ratio. 20 μL of Agonist Compounds were applied to cells using the automated system of the FDSS 6000 at 4 s into the 300 s protocol and the data were collected at 1 Hz. Concentration-response curves were generated using a four-parameter logistical equation in XLfit curve fitting software (IDBS, Bridgewater, N.J.) for Excel (Microsoft, Redmond, Wash.) or Prism (GraphPad Software, Inc., San Diego, Calif.).

[1] = human M1, agonist-evoked calcium mobilization in CHO-K1 cells, read-out: Potency (EC50)

| SMILES | Emax | EC50 [1] | EC50 |
| --- | --- | --- | --- |
| CCOC(=O)N1[C@@H]2CC[C@H]1C[C@H](NCCNC(=O)N1CCCCC1)C2 [Example 28, ethyl 3((3-exo)-(2-(piperidine-1-carboxamido)ethyl)amino)-8-azabicyclo[3.2.1]octane-8-carboxylate] | 46% | 700 nM | – |
| COC(=O)N1C2CCC1CC(NCCNC(=O)c1ccccc1)C2 (stereo not drawn) [Example 29, methyl 3-((3-exo)-(2-benzamidoethyl)amino)-8-azabicyclo[3.2.1]octane-8-carboxylate] | 7% | – | – |
| C=CCOC(=O)N1[C@@H]2CC[C@H]1C[C@H](NCCNC(=O)c1ccccc1)C2 [Example 30, allyl 3-((3-exo)-(2-benzamidoethyl)amino)-8-azabicyclo[3.2.1]octane-8-carboxylate] | 29% | – | – |
| CCOC(=O)N1[C@@H]2CC[C@H]1C[C@H](NCCNC(=O)c1ccccc1C)C2 [Example 31, ethyl 3-((3-exo)-(2-(2-methylbenzamido)ethyl)-amino)-8-azabicyclo[3.2.1]octane-8-carboxylate] | 38% | – | 2500 nM |
| CCOC(=O)N1C2CCC1CC(NCCNC(=O)N1[C@H](C)CCC[C@@H]1C)C2 (stereo partly drawn) [Example 32] | 26% | – | – |
| CCOC(=O)N1[C@@H]2CC[C@H]1C[C@H](NCCNC(=O)c1ccc(F)cc1)C2 [Example 33, ethyl 3-((3-exo)-(2-(4-fluorobenzamido)ethyl)-amino)-8-azabicyclo[3.2.1]octane-8-carboxylate] | 48% | 1700 nM | – |
| CCOC(=O)N1[C@@H]2CC[C@H]1C[C@H](NCCNC(=O)C1CCCCC1)C2 [Example 34, ethyl 3-((3-exo)-(2-(cyclohexanecarboxamido)-ethyl)amino)-8-azabicyclo[3.2.1]octane-8-carboxylate] | 25% | 3200 nM | – |
| CCOC(=O)N1[C@@H]2CC[C@H]1C[C@H](NCCNC(=O)c1cccc(Cl)c1)C2 [Example 35, ethyl 3-((3-exo)-(2-(3-chlorobenzamido)ethyl)-amino)-8-azabicyclo[3.2.1]octane-8-carboxylate] | 57% | 490 nM | – |
| CCOC(=O)N1[C@@H]2CC[C@H]1C[C@H](NCCNC(=O)c1cc(F)cc(F)c1)C2 [Example 36, ethyl 3-((3-exo)-(2-(3,5-difluorobenzamido)ethyl)-amino)-8-azabicyclo[3.2.1]octane-8-carboxylate] | 37% | 2600 nM | – |
| CC(C)OC(=O)N1C2CCC1CC(NCCNC(=O)c1ccccc1)C2 (stereo not drawn) [Example 37, isopropyl 3-((3-exo)-(2-benzamidoethyl)amino)-8-azabicyclo[3.2.1]octane-8-carboxylate] | 7% | – | – |
| CCOC(=O)N1[C@@H]2CC[C@H]1C[C@H](NCCNC(=O)N1CCOCC1)C2 [Example 38, ethyl 3-((3-exo)-(2-(morpholine-4-carboxamido)ethyl)-amino)-8-azabicyclo[3.2.1]octane-8-carboxylate] | 37% | 3600 nM | – |
| CCOC(=O)N1[C@@H]2CC[C@H]1C[C@H](NCCNC(=O)c1ccc(F)c(F)c1)C2 [Example 39, ethyl 3-((3-exo)-(2-(3,4-difluorobenzamido)ethyl)-amino)-8-azabicyclo[3.2.1]octane-8-carboxylate] | 46% | 1400 nM | – |
| CCOC(=O)N1[C@@H]2CC[C@H]1C[C@H](NCCNC(=O)c1cccs1)C2 [Example 40, ethyl 3-((3-exo)-(2-(thiophene-2-carboxamido)ethyl)-amino)-8-azabicyclo[3.2.1]octane-8-carboxylate] | 15% | – | 2100 nM |
| CCOC(=O)N1C2CCC1CC(NCCNC(=O)c1cccc(OC)c1)C2 (stereo not drawn) [Example 41, ethyl 3-((3-exo)-(2-(3-methoxybenzamido)ethyl)-amino)-8-azabicyclo[3.2.1]octane-8-carboxylate] | 19% | – | – |
| CCOC(=O)N1[C@@H]2CC[C@H]1C[C@H](NCCNC(=O)c1ccccc1Cl)C2 [Example 42] | 25% | – | – |
